# According to ChEMBL document CHEMBL5528035, “Design, Synthesis, and Biological Evaluation for First GPX4 and CDK Dual Inhibitors” (J Med Chem, 2024):
# Experiments:
# [1] = molecular target: CDK2/Cyclin A2 (Homo sapiens) (UniProt P24941+P20248); assay: Inhibition of CDK2/CyclinA2 (unknown origin) at 100 nM preincubated for 15 mins followed by substrate and ATP addition incubated for 10 mins by ADP-glo luminescent assay relative to control; assay type: protein-complex assay; conditions: time 25.0 min
# [2] = molecular target: CDK6/cyclin D3 (Homo sapiens) (UniProt P30281+Q00534); assay: Inhibition of CDK6/CyclinD3 (unknown origin) at 100 nM preincubated for 15 mins followed by substrate and ATP addition incubated for 10 mins by ADP-glo luminescent assay relative to control; assay type: protein-complex assay; conditions: time 25.0 min
# [3] = test system: MDA-MB-231; assay: cells; conditions: Homo sapiens, MDA-MB-231, 48 h
# Description: Antiproliferative activity against human MDA-MB-231 cells assessed as inhibition of cell growth incubated for 48 hrs by CCK-8 assay
# [4] = test system: HCT-116; assay: cells; conditions: Homo sapiens, HCT-116, 48 h
# Description: Antiproliferative activity against human HCT-116 cells assessed as inhibition of cell growth incubated for 48 hrs by CCK-8 assay
# [5] = test system: A549; assay: cells; conditions: Homo sapiens, A549, 48 h
# Description: Antiproliferative activity against human A549 cells assessed as inhibition of cell growth incubated for 48 hrs by CCK-8 assay
# [6] = test system: HepG2; assay: cells; conditions: Homo sapiens, HepG2, 48 h
# Description: Antiproliferative activity against human HepG2 cells assessed as inhibition of cell growth incubated for 48 hrs by CCK-8 assay
Compound,inhibition [1],inhibition [2],IC50 [3],IC50 [4],IC50 [5],IC50 [6]
O=C(CCn1cc(COc2ccc(N(C(=O)CCl)C(C(=O)NCCc3ccccc3)c3cccs3)cc2Cl)nn1)O/N=C1/C(=C2/C(=O)Nc3ccccc32)Nc2ccc(Br)cc21 (configuration not stated),13.3%,34.9%,> 10 µM,> 10 µM,> 10 µM,> 10 µM
O=C(CCn1cc(COc2ccc(N(C(=O)CCl)C(C(=O)NCCc3ccccc3)c3cccs3)cc2Cl)nn1)O/N=C1/C(=C2/C(=O)Nc3ccccc32)Nc2cc(Cl)c(Cl)cc21 (configuration not stated),5.9%,10.4%,> 10 µM,> 10 µM,> 10 µM,> 10 µM
O=C(CCn1cc(COc2ccc(N(C(=O)CCl)C(C(=O)NCCc3ccccc3)c3cccs3)cc2Cl)nn1)NCCCO/N=C1/C(=C2/C(=O)Nc3ccc(F)cc32)Nc2ccccc21 (configuration not stated),3.17%,36.2%,1.64 µM,1.99 µM,1.88 µM,4.92 µM
O=C(CCn1cc(COc2ccc(N(C(=O)CCl)C(C(=O)NCCc3ccccc3)c3cccs3)cc2Cl)nn1)O/N=C1/C(=C2/C(=O)Nc3ccccc32)Nc2cc(Cl)ccc21 (configuration not stated),8.53%,37.1%,7.78 µM,7.32 µM,6.27 µM,7.51 µM
O=C(CCn1cc(COc2ccc(N(C(=O)CCl)C(C(=O)NCCc3ccccc3)c3cccs3)cc2Cl)nn1)O/N=C1/C(=C2/C(=O)Nc3ccccc32)Nc2ccc(F)cc21 (configuration not stated),19.6%,21.4%,3.24 µM,4.25 µM,6.37 µM,5.58 µM
O=C(CCn1cc(COc2ccc(N(C(=O)CCl)C(C(=O)NCCc3ccccc3)c3cccs3)cc2Cl)nn1)NCCCO/N=C1/C(=C2/C(=O)Nc3cc(Cl)c(Cl)cc32)Nc2ccccc21 (configuration not stated),14%,12.8%,> 10 µM,> 10 µM,> 10 µM,> 10 µM
O=C(CCn1cc(COc2ccc(N(C(=O)CCl)C(C(=O)NCCc3ccccc3)c3cccs3)cc2Cl)nn1)O/N=C1/C(=C2/C(=O)Nc3ccccc32)Nc2cc(F)c(F)cc21 (configuration not stated),10.5%,24.4%,> 10 µM,> 10 µM,> 10 µM,> 10 µM
O=C(CCn1cc(COc2ccc(N(C(=O)CCl)C(C(=O)NCCc3ccccc3)c3cccs3)cc2Cl)nn1)O/N=C1/C(=C2/C(=O)Nc3ccccc32)Nc2cc(F)ccc21 (configuration not stated),9.85%,29.7%,7.12 µM,6.81 µM,6.69 µM,8.19 µM
O=C(CCn1cc(COc2ccc(N(C(=O)CCl)C(C(=O)NCCc3ccccc3)c3cccs3)cc2Cl)nn1)O/N=C1/C(=C2/C(=O)Nc3ccccc32)Nc2ccccc21 (configuration not stated),8.89%,46.3%,7.89 µM,7.45 µM,7.72 µM,8.18 µM
O=C(CCn1cc(COc2ccc(N(C(=O)CCl)C(C(=O)NCCc3ccccc3)c3cccs3)cc2Cl)nn1)NCCCO/N=C1/C(=C2/C(=O)Nc3cc(F)c(F)cc32)Nc2ccccc21 (configuration not stated),1.12%,16.1%,> 10 µM,9.63 µM,8.32 µM,> 10 µM
O=C(CCn1cc(COc2ccc(N(C(=O)CCl)C(C(=O)NCCc3ccccc3)c3cccs3)cc2Cl)nn1)NCCCO/N=C1/C(=C2/C(=O)Nc3cc(Br)c(Br)cc32)Nc2ccccc21 (configuration not stated),4.02%,4.65%,> 10 µM,> 10 µM,> 10 µM,> 10 µM
O=C(CCn1cc(COc2ccc(N(C(=O)CCl)C(C(=O)NCCc3ccccc3)c3cccs3)cc2Cl)nn1)NCCCO/N=C1/C(=C2/C(=O)Nc3ccccc32)Nc2ccccc21 (configuration not stated),22.1%,52.1%,1.2 µM,1.49 µM,2.85 µM,2.02 µM
